{"source": "ChEMBL document CHEMBL1201862", "about": "“PubChem BioAssay data set” (2004)", "key": {"[1]": {"molecular_target": "Acyl-homoserine lactone acylase PvdQ (Pseudomonas aeruginosa (strain LESB58), UniProt Q9I194)", "sequence (Q9I194 24-193 limits assumed)": "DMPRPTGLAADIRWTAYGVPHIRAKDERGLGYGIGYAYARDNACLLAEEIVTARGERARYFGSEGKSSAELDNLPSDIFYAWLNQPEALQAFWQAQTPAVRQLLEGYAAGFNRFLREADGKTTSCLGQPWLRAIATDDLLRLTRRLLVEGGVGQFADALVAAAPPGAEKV", "sequence (Q9I194 217-762 limits assumed)": "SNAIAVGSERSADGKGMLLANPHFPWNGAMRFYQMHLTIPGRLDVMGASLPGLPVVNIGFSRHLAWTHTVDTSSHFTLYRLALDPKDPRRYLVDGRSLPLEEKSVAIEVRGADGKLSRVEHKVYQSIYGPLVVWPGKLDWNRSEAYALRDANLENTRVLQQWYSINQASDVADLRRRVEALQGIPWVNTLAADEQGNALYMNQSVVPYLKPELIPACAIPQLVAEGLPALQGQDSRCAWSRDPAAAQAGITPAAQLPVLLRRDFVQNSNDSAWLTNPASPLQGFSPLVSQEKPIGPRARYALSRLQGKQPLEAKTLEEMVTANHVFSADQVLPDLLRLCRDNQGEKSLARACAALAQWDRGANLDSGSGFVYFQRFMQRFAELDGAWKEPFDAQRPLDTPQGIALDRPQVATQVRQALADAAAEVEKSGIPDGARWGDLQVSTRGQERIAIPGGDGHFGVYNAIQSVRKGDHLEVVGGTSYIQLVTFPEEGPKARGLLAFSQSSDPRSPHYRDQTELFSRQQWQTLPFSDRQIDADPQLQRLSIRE", "test": "PvdQ acylase enzyme activity blockers – biochemical, fluorescence, plate reader and imaging, cherry-picks, dose response (AID 493231)"}, "[2]": {"molecular_target": "T1, Alkaline phosphatase, tissue-nonspecific isozyme (Homo sapiens, UniProt P05186)", "T1 sequence (P05186 whole entry)": "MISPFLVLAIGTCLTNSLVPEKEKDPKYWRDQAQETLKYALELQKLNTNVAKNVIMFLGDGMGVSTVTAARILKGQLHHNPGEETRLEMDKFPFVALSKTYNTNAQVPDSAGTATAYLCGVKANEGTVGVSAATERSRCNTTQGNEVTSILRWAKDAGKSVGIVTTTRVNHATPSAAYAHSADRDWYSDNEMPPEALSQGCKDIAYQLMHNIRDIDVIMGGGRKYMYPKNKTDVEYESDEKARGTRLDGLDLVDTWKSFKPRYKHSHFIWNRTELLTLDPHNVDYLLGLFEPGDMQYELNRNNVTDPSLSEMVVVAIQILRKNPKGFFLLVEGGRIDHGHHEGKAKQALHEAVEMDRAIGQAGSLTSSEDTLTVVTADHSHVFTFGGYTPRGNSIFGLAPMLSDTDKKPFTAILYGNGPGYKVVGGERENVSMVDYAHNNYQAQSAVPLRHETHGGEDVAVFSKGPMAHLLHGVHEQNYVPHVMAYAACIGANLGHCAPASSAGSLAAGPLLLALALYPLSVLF"}, "[3]": {"system": "Streptococcus sp. 'group A'", "test": "Streptococcus pyogenes SK(-)GAS viability under kanamycin – luminescence, BacTiterGlo, confirmation, counter-screen for streptokinase expression inhibitor project, dose response (AID 1900)", "assay_type": "functional, organism-based"}, "Streptococcus [4]": {"system": "Streptococcus", "test": "Luminescence Microorganism-Based Dose Response Follow up to Identify Compounds Cytotoxic to Streptococcus. [Related pubchem assays: 1677 (Project Summary), 1915, 1914, 1902 (Retest at Dose), 1900 (Counter Screen), 1662 (Primary HTS)]", "assay_type": "functional, organism-based"}, "Streptokinase A": {"molecular_target": "T2, Streptokinase A (Streptococcus pyogenes serotype M1, UniProt P10520)", "T2 sequence (P10520 whole entry)": "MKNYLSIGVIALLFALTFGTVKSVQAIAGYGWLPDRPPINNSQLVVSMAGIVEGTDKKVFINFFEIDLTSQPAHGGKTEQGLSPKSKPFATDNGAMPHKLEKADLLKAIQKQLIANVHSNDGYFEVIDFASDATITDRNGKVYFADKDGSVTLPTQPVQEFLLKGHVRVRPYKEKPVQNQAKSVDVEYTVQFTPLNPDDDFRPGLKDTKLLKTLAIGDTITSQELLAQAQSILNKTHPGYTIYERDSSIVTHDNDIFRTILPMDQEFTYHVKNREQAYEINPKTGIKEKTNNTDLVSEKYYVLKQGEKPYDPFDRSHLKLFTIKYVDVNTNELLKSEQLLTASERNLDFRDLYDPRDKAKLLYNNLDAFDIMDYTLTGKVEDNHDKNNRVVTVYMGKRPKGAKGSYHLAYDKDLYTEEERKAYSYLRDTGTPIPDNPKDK", "test": "viability-normalized secreted streptokinase activity reduction – plasminogen activation absorbance, OD405, dose response (AID 1914);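 note: secreted streptokinase activity via plasminogen activation per viability signal from cell pellet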", "assay_type": "functional, Streptococcus pyogenes M1 GAS"}, "Streptococcus [5]": {"system": "Streptococcus", "test": "GAS UMAA2166 growth inhibition – luminescence, BacTiterGlo, counter-screen for streptokinase expression inhibitor project, dose response (AID 1915);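 note: potency for reduction of bacterial viability or growth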", "assay_type": "functional, organism-based"}, "Bcl-2-like protein 10": {"molecular_target": "Bcl-2-like protein 10 (Homo sapiens, UniProt Q9HD36)", "sequence (Q9HD36 whole entry)": "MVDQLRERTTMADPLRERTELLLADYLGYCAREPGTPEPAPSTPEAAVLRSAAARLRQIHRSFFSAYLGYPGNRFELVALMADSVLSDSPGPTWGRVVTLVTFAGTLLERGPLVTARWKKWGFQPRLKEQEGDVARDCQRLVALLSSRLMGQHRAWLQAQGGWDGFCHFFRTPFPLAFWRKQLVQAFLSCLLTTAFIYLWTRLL", "test": "Bcl-B/TR3 peptide binding disruption – biochemical, fluorescence polarization, FITC-TR3 peptide, selectivity assay for Bfl-1 inhibitor project, primary screen (AID 748);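 note: fluorescence polarization from a fluorescein-labelled TR3 peptide binding purified Bcl-B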"}, "[6]": {"molecular_target": "Eukaryotic translation initiation factor 4H (Homo sapiens, UniProt Q15056)", "test": "eIF4H binding inhibition – biochemical, uHTS, fluorescence polarization, translation initiation inhibitor project, primary screen (AID 2012)"}, "[7]": {"molecular_target": "Polyadenylate-binding protein 1 (Homo sapiens, UniProt P11940)", "sequence (P11940 whole entry)": "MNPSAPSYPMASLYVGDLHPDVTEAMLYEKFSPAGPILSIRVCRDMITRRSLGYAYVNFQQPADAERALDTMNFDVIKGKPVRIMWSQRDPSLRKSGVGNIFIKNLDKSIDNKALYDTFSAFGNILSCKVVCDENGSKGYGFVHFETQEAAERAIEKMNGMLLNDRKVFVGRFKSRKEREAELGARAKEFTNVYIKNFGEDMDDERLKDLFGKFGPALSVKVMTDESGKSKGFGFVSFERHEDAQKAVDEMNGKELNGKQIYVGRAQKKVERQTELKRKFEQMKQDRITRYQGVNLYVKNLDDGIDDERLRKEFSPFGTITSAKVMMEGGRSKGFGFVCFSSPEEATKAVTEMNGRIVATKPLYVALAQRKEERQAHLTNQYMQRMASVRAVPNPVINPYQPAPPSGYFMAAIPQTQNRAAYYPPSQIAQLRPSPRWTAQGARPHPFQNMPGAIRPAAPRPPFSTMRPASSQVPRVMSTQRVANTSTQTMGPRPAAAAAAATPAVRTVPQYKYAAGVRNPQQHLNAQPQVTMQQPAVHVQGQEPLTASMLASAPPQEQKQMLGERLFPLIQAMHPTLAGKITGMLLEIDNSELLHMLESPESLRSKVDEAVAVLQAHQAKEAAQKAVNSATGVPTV", "test": "blockers of PABP interaction with poly(A) – biochemical, fluorescence polarization, […] (AID 2014)"}, "Aspartyl aminopeptidase": {"molecular_target": "Aspartyl aminopeptidase (Plasmodium falciparum 3D7, UniProt Q8I2J3)", "sequence (Q8I2J3 whole entry)": "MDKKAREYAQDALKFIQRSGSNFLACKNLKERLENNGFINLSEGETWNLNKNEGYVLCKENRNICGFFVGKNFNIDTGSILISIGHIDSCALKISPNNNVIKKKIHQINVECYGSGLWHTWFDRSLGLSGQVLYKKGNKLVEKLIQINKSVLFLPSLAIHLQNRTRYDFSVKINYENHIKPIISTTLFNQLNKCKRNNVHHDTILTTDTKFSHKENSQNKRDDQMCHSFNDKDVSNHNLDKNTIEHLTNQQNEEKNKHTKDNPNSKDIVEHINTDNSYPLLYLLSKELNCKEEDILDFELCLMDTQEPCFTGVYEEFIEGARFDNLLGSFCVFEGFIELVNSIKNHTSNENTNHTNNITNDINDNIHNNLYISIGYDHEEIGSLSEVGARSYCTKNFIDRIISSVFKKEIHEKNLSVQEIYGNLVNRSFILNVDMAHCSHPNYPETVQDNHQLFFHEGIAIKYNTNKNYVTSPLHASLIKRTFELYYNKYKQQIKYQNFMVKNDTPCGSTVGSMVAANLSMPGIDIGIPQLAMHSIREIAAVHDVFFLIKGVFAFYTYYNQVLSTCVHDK"}, "Procathepsin L": {"molecular_target": "Procathepsin L (Homo sapiens, UniProt P07711)", "sequence (P07711 whole entry)": "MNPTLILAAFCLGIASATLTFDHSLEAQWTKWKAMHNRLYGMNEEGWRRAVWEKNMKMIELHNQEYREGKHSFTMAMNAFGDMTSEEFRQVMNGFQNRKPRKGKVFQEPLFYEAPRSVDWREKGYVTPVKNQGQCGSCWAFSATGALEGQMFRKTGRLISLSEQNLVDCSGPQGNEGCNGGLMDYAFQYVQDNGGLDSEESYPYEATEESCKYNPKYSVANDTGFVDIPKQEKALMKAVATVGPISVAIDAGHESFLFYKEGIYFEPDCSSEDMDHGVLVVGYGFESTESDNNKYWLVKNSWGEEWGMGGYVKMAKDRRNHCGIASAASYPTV"}, "[8]": {"molecular_target": "T3, Rac GTPase-activating protein 1 (Homo sapiens, UniProt Q9H0H5)", "T3 sequence (Q9H0H5 whole entry)": "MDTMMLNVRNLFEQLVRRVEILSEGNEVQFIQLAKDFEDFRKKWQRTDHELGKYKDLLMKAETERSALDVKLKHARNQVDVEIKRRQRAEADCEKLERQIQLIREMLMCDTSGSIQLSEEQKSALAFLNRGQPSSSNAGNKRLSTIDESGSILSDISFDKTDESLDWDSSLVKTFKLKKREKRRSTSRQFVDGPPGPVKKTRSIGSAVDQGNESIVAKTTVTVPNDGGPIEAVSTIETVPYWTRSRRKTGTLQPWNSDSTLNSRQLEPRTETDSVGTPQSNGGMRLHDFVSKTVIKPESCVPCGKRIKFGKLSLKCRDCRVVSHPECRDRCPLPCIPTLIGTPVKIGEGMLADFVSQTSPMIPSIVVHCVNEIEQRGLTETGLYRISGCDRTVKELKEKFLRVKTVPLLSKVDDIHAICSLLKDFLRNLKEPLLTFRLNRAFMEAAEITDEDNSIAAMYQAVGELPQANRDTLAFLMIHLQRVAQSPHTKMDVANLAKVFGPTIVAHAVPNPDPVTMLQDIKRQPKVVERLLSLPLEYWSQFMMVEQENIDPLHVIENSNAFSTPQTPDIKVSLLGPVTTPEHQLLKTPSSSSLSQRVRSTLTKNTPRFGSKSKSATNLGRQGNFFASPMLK", "test": "blockers of MgcRacGAP-driven Rac1 GTP hydrolysis – biochemical, ADP Hunter fluorescence, primary and confirmatory, confirmation (AID 624330)", "assay_type": "functional"}}, "note": "Activity calls are given as the source filed them.", "data": [{"compound": "N#Cc1cc([N+](=O)[O-])ccc1N1CCCC1", "values": [{"measurement": "AC50", "setting": "[1]", "result": "3.79 µM (active)"}]}, {"compound": "CCOC(=O)CSc1nc2ccccc2c(=O)n1CCC(=O)NCCc1ccc(OC)c(OC)c1", "values": [{"measurement": "EC50", "setting": "[2]", "result": "> 100 µM (not active)"}]}, {"compound": "O=[N+]([O-])c1ccc(Nc2nc(NCCO)nc(N3CCCC3)n2)cc1", "values": [{"measurement": "EC50", "setting": "[3]", "result": "6.68 µM (active)"}, {"measurement": "EC50", "setting": "Streptococcus [4]", "result": "54.3 µM (active)"}, {"measurement": "EC50", "setting": "Streptokinase A", "result": "7.48 µM (active)"}, {"measurement": "EC50", "setting": "Streptococcus [5]", "result": "> 150 µM (not active)"}]}, {"compound": "C=CCSc1nnc2nc3c(nn12)c1cc(C)ccc1n3CC=C", "values": [{"measurement": "IC50", "setting": "Bcl-2-like protein 10", "result": "> 100 µM (inactive)"}]}, {"compound": "Cc1ccccc1/C=C/c1cccc[n+]1C", "values": [{"measurement": "IC50", "setting": "[6]", "result": "> 100 µM (inactive)"}, {"measurement": "IC50", "setting": "[7]", "result": "7.43 µM (active)"}]}, {"compound": "Cc1cc(O)nc2c(N=Nc3ccc(O)cc3)c(N)nn12", "values": [{"measurement": "IC50", "setting": "Aspartyl aminopeptidase", "result": "1.51 µM (active)"}, {"measurement": "IC50", "setting": "Procathepsin L", "result": "> 59.6 µM (not active)"}, {"measurement": "IC50", "setting": "[8]", "result": "12.1 µM (active)"}]}]}
